Legend:
[1] = Formation rate of Sc(DO3AM-NI) at acidic pH followed by 1H and 45Sc NMR; format: physicochemical; conditions: pH = 1.52, 25 °C, 3.80 mM ligand, 4.90 mM ScCl3
Procedure: This is promising for the labeling studies, yet it also underlines that the so-called “batch-method” must be applied in very acidic samples for the determination of the stability constant of the Sc(DO3AM-NI) chelate.
^1H- and ^45Sc-NMR measurements (400 MHz and 97 MHz, respectively) were performed with a Bruker DRX 400 (9.4 T) spectrometer equipped with a Bruker VT-1000 thermocontroller and a BB inverse z-gradient probe (5 mm). The kinetic experiments were performed at 25 °C, whereas the equilibrium studies were performed at 37 °C in aqueous solutions using D2O (in capillary) for locking. Typical parameters of ^45Sc-NMR measurements used were pulse length p1 = 15.6 μs (90°), relaxation delay d1 = 0.1 s and 128 scans. The formation reaction of the Sc(DO3AM-NI) complex was followed by ^1H- and ^45Sc-NMR spectroscopy in a sample containing 3.80 mM ligand and 4.90 mM ScCl3 with a total acid concentration corresponding to a pH of 1.54. […] Actually, the intensity of the ^45Sc-NMR signal of Sc(III)aq could precisely be measured while that of the broad signal corresponding to the Sc(DO3AM-NI) complex could not. […] The molar integral values of the ^45Sc-NMR signal of Sc(III)aq were determined by recording the ^45Sc-NMR spectra of a 50 mM ScCl3 solution containing 0.015 M HCl as a reference sample. […]

[2] = Stability constant of Sc(III) complex by 1H and 45Sc NMR batch samples and pH-potentiometric titration; pSc calculation; format: physicochemical; conditions: 0.15 M NaCl, 37 °C
Procedure: The stability constant of the Sc(DO3AM-NI) complex was assessed by ^1H and ^45Sc-NMR studies using samples prepared in the 0.055–0.195 M acid concentration range. […] Absence of protonation and the presence of a ternary hydroxydo species formation with KScL•OH = 10.88(5) were detected at our experimental conditions. The NMR samples contained 3.32 mM ligand, ScCl3 and a constant ionic strength of 0.15 M NaCl. The samples were thermostated at 37 °C, and their ^1H- and ^45Sc-NMR spectra were recorded after 60 days. In order to ensure that the equilibrium in the samples was attained, the ^1H and ^45Sc-NMR measurements were repeated again 90 days later. The spectra were practically identical with the spectra recorded at 60 days (Figures S4 and S5). As expected, the thermodynamic stability constant of the Sc(DO3AM-NI) complex (log KScL = 22.36(4)) was considerably lower than those of Sc(III) complexes formed with DOTA, DTPA or AAZTA ligands (Table 1). A moderate decrease in terms of thermodynamic stability constants was already observed for the complexes of DO3A-monamides formed with Gd(III) ions in comparison to the stability of parent Gd(DOTA)^− chelate. Despite the lower stability constant of the complex, the Sc(III) ion was complexed completely around pH = 2.0 (in a millimolar concentration range, see Figure 2). However, it might be misleading to directly compare the stability constants of the complexes formed by ligands of different basicity (as it depends on the basicity of the ligand); therefore, we calculated and compared the pSc values (which could be treated as conditional constants) for the complexes shown in Table 1 by taking the protonation constants of ligands, the stability constants of the complex species present in solution and the hydrolysis of the Sc(III) ion (according to Ref. [23]: log βSc(OH) = −4.3, log βSc(OH)2 = −9.7, log βSc(OH)3 = −16.1, log βSc(OH)4 = −26.0 and log βSc2(OH)4 = −6.0) into account.
The equilibrium measurements were performed at constant ionic strength maintained by 0.15 M NaCl at 37 °C. For determining the protonation constants of DO3AM-NI, two parallel pH-potentiometric titrations were performed with 0.1611 M NaOH in a 5.00 cm^3 sample containing the ligand at the concentration of 2.76 mM. The stability constant of Sc(DO3AM-NI) was assessed by ^1H and ^45Sc NMR in 0.7 mL “batch” samples containing the metal and the ligand at 3.32 mM and different concentrations of strong acid (0.05–0.20 M) aged 90 days (see below). The formation of protonated and ternary hydroxydo complex species was probed by pH-potentiometric titration by titrating the preformed complex (at a concentration of 1.95 mM) with standardized NaOH solution. For the calculation of the logKMH-1L value, the VNaOH–pH data used were obtained in the pH range 1.68–11.85. The pH-potentiometric titrations were carried out with a Metrohm 785 DMP Titrino titration workstation with the use of a Metrohm-6.0233.100-combined electrode calibrated via a two-point calibration routine using KH-phthalate (pH = 4.005) and borax (pH = 9.177) buffers. The titrated samples were stirred with a magnetic stirrer, and N2 gas was bubbled through the solutions to avoid the effect of CO2. For the calculation of [H^+] from the measured pH values, the method proposed by Irving et al. was applied. For this, a 0.01M HCl solution was titrated with the standardized NaOH solution in the presence of 0.15 M NaCl ionic strength at 37 °C. The differences between the measured (pHread) and calculated pH (-log[H^+]) values were used to obtain the equilibrium H^+ concentration from the pHmeas values during the titrations. […] For the calculation of the equilibrium constants, the PSEQUAD program was used.
^1H- and ^45Sc-NMR measurements (400 MHz and 97 MHz, respectively) were performed with a Bruker DRX 400 (9.4 T) spectrometer equipped with a Bruker VT-1000 thermocontroller and a BB inverse z-gradient probe (5 mm). […]

O=C([O-])CN1CCN(CC(=O)[O-])CCN(CC(=O)NCCn2ccnc2[N+](=O)[O-])CCN(CC(=O)[O-])CC1.[Sc+3] [Sc(DO3AM-NI)]
time for complex formation to reach equilibrium [1]: about twelve | log KScL•OH (ternary hydroxydo species) [2]: 10.88(5) | log KSc•L (stability constant of Sc(III) complex) [2]: 22.36(4) | pH around which the Sc(III) ion is complexed completely ([2]; millimolar concentration range): ~2.0
